Source: patent publication US20110003888A1, “HOPS EXTRACTION METHODS AND MIXTURES” (Bioactives, Inc., priority 2007, published 2011)
Values belong to the compound of their own block, whether it stands above or below them.

Tests used:
[1] = system: endothelial cells; conditions: in vitro model, endothelial cells invading collagen gel and forming capillary-like tubes; cited from earlier work
[2] = molecular target: T1, Cyp1B1 (Homo sapiens, UniProt Q16678); conditions: cDNA-expressed human Cyp1B1; cited from earlier work
T1 sequence (Q16678 1-543): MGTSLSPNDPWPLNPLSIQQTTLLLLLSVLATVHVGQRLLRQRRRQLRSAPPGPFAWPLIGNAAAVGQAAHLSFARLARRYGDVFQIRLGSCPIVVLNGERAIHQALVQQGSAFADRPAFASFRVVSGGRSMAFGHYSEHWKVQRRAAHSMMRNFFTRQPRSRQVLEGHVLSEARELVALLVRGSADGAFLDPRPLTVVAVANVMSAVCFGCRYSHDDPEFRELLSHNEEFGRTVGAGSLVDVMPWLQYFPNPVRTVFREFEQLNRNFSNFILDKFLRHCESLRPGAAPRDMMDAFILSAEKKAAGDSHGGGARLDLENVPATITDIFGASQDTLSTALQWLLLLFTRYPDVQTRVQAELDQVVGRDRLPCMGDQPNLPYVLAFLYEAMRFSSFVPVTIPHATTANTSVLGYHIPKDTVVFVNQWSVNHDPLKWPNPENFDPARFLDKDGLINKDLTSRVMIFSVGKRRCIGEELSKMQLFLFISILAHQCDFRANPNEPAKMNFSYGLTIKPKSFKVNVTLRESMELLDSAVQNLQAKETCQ

[3] = molecular target: T2, Cyp1 A2 (Homo sapiens, UniProt P05177); conditions: cDNA-expressed human Cyp1 A2; cited from earlier work
T2 sequence (P05177 1-516): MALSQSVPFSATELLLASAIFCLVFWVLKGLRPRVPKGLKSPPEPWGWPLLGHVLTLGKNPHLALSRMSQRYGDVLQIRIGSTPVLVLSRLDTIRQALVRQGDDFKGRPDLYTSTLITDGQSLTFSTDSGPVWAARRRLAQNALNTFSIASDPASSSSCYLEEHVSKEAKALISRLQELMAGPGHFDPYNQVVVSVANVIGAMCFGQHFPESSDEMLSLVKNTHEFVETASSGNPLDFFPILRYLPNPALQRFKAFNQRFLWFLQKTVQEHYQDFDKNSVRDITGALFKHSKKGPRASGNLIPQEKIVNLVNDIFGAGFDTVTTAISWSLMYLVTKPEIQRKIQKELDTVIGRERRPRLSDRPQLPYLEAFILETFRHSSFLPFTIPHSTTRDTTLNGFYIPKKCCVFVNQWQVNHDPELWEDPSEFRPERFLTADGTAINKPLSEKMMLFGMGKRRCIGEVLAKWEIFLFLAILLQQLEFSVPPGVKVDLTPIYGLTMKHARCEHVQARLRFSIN

[4] = molecular target: T3, Cyp1 A1 (Homo sapiens, UniProt P04798); conditions: cDNA-expressed human Cyp1 A1; cited from earlier work
T3 sequence (P04798 1-512): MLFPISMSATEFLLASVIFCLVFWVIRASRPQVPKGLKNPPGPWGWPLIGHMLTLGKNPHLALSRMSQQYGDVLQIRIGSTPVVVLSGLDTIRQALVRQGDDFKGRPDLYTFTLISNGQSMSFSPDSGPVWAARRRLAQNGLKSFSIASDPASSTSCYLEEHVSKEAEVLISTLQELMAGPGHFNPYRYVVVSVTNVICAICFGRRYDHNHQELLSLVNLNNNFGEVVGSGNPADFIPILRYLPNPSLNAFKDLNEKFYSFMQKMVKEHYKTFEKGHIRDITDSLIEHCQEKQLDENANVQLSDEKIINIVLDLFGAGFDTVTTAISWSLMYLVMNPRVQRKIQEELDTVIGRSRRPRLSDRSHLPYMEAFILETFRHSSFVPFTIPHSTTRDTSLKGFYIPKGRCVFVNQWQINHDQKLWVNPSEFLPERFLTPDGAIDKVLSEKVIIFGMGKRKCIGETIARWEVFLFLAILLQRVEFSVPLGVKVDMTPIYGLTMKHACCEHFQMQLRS

[5] = in vitro; conditions: human, Caco-2
Protocol: (§1) To test the permeability of xanthohumol across Caco-2 cell monolayers, Caco-2 cell monolayers were grown to confluence on collagen-coated, microporous, polycarbonate membranes in 12-well Costar Transwell® plates. Details of the plates and their certification are shown below in Table 3. The test article was also the aqueous xanthohumol formulation, and the dosing concentration was 2 μM in the assay buffer (HBSSg) as in the previous example. Cell monolayers were dosed on the apical side (A-to-B) or basolateral side (B-to-A) and incubated at 37° C. with 5% CO2 in a humidified incubator. Samples were taken from the donor chamber at 120 minutes, and samples from the receiver chamber were collected at 60 and 120 minutes. Each determination was performed in duplicate. Lucifer yellow permeability was also measured for each monolayer after being subjected to the test article to ensure no damage was inflicted to the cell monolayers during the permeability experiment. All samples were assayed for Xanthohumol by LC/MS/MS using electrospray ionization. The apparent permeability (Papp), and percent recovery were calculated as described above.

[6] = Permeability across Caco-2 cell monolayers; format: in vitro ADME; conditions: human
Protocol: (§2) Percent Recovery=100×((Vr×Cr^final)+(Vd×Cd^final))/(Vd×C0) • Where: • dCr/dt is the slope of the cumulative concentration in the receiver compartment versus time in μM s^−1. • Vr is the volume of the receiver compartment in cm^3. • Vd is the volume of the donor compartment in cm^3. • A is the area of the cell-free insert (1.13 cm^2 for 12-well Transwell). • Cr^final is the cumulative receiver concentration in μM at the end of the incubation period. • Cd^final is the concentration of the donor in μM at the end of the incubation period. • C0 is the initial concentration of the dosing solution in μM.
(§3) Each determination was performed in duplicate.

[7] = system: Caco-2 cell monolayers; test: Permeability across Caco-2 cell monolayers; format: in vitro ADME
Protocol: as §2, §3

[8] = system: inducible COX-2; conditions: read-out: IC50, inhibition of cyclooxygenase; cited from earlier work
[9] = Permeability through cell-free (blank) microporous membrane filter, non-specific binding assessment; format: in vitro ADME; conditions: not told, pH 7.4, cell-free filter; for Papp A→B at 120 min, 2 μM: xanthohumol gel formulation at 2 μM xanthohumol; for recovery at 120 min, 2 μM: xanthohumol gel formulation at 2 μM
Protocol: The permeability of the xanthohumol gel through a cell-free (blank) microporous 0.4 micron membrane filter was studied in order to determine the non-specific binding and cell-free diffusion Papp of the xanthohumol gel formulation. The xanthohumol gel formulation was assayed at a 2 μM xanthohumol concentration in Hanks buffer (Hanks Balanced Salt Solution (HBSSg) containing 10 mM HEPES and 15 mM glucose) at a pH of 7.4 in duplicate. Donor samples were collected at 120 minutes. Receiver samples were collected at 60 and 120 minutes. The apparent permeability coefficient, Papp, and percent recovery were calculated as follows:
as §2

[10] = system: Caco-2 cell monolayers; test: Caco-2 Transwell plate certification with control compounds; conditions: Caco-2 plate certification, TW12, passage 63, age 22 days
Protocol: as §1

efflux ratio [5]: 16.6
Compound: C[C@H]1O[C@@H](O[C@H]2[C@@H](O)C[C@H](O[C@H]3[C@@H](O)C[C@H](O[C@H]4CC[C@@]5(C)[C@H](CC[C@@H]6[C@@H]5C[C@@H](O)[C@]5(C)[C@@H](C7=CC(=O)OC7)CC[C@]65O)C4)O[C@@H]3C)O[C@@H]2C)C[C@H](O)[C@@H]1O [Digoxin]

Papp [5]: 20.6 ×10⁻⁶ cm/s
Compound: CC(C)NCC(O)COc1cccc2ccccc12 (stereo not shown) [Propranolol]

efflux ratio at 120 min, 2 μM ([6]; Caco-2, pH 7.4): 2.1
Papp A→B at 120 min, 2 μM ([6]; Caco-2, pH 7.4, Papp): 0.84 ×10⁻⁶ cm/s
Papp B→A at 120 min, 2 μM ([6]; Caco-2, pH 7.4, Papp): 1.36 ×10⁻⁶ cm/s
Significant Efflux ([7]; Caco-2): No
Papp A→B at 120 min, 2 μM ([9]; pH 7.4, Rep. 1): 18.6 ×10⁻⁶ cm/s
Papp A→B at 120 min, 2 μM ([9]; pH 7.4, Rep. 2): 17.1 ×10⁻⁶ cm/s
Papp A→B at 120 min, 2 μM ([9]; pH 7.4, average N = 2): 17.9 ×10⁻⁶ cm/s
recovery at 120 min, 2 μM ([9]; Rep. 1): 95%
recovery at 120 min, 2 μM ([9]; Rep. 2): 99%
recovery at 120 min, 2 μM ([9]; average N = 2): 97%
Compound: COc1cc(O)c(CC=C(C)C)c(O)c1C(=O)/C=C/c1ccc(O)cc1 [Xanthohumol, xanthohumol]
Inhibition of cytochrome P450 enzyme [2]: strongly inhibit
Inhibition of cytochrome P450 enzyme [3]: strongly inhibit
IC50 [8]: 42 µM
Inhibition of cytochrome P450 enzyme [4]: strongly inhibit

Lucifer yellow Papp, post-experiment integrity control ([7]; all monolayers after exposure to test article): < 0.8 ×10⁻⁶ cm/s
Papp [10]: 0.13 ×10⁻⁶ cm/s
Compound: Lucifer Yellow [reference compound]

More lines, now with the values behind:

Compound: CC(C)=CCc1c(O)cc(O)c2c1O[C@H](c1ccc(O)cc1)CC2=O [8-prenylnaringenin]
Effect on angiogenesis [1]: inhibits angiogenesis
Inhibition of cytochrome P450 enzyme [2]: strongly inhibit
Inhibition of cytochrome P450 enzyme [3]: strongly inhibit
Inhibition of cytochrome P450 enzyme [4]: strongly inhibit

Compound: COc1cc(O)c(CC=C(C)C)c2c1C(=O)CC(c1ccc(O)cc1)O2 (stereo not shown) [isoxanthohumol]
Inhibition of cytochrome P450 enzyme [2]: strongly inhibit
Inhibition of cytochrome P450 enzyme [3]: strongly inhibit
Inhibition of cytochrome P450 enzyme [4]: strongly inhibit
